Experimental data from US20070010671A1, “Novel quinazoline derivatives and methods of treatment related to the use thereof” (priority 2003, published 2007).

Biological target: MCH receptor (Homo sapiens, UniProt Q99705)
Assay: High throughput functional screening FLIPR/FDSS6000: inhibition of MCH-evoked intracellular Ca2+ changes
Assay type: cell-based
Settings: class by percent of control at 10^-7 M or IC50
Outline: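 Cells expressing a non-endogenous, constitutively active MCH receptor were loaded with 4 μM Fluo4-AM (with probenecid) for 1 hr at 37° C. Test compound was preincubated 3 min at 37° C before 50 nM MCH was added. The [Ca2+]i transient was read at Ex 488/Em 530 nm for 290 s.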

Row | Compound | class
1 | CN(C)c1nc(N[C@H]2CC[C@@H](CNC(=S)Nc3ccc(OCc4ccccc4)cc3)CC2)nc2ccccc12 [compound 690] | 3 (Class 3: The value of percent of control at 10^−7 M was more than 60% or the value of IC50 was more than 200 nM.)
2 | CN(C)c1nc(N[C@H]2CC[C@@H](NC(=S)NC3CC4C=CC3C4)CC2)nc2ccccc12 (relative stereo) [compound 378] | 3 (Class 3: The value of percent of control at 10^−7 M was more than 60% or the value of IC50 was more than 200 nM.)
3 | CCCCc1ccc(NC(=S)N[C@H]2CC[C@@H](Nc3nc(N(C)C)c4ccccc4n3)CC2)c(C)c1 [compound 385] | 1 (Class 1: The value of percent of control at 10^−7 M was less than 40% or the value of IC50 was less than 50 nM.)
4 | COC(=O)c1cccc(NC(=O)NC[C@H]2CC[C@@H](Nc3nc(N(C)C)c4ccccc4n3)CC2)c1 [compound 527] | 3 (Class 3: The value of percent of control at 10^−7 M was more than 60% or the value of IC50 was more than 200 nM.)
5 | COc1ccc(NC(=S)NC[C@H]2CC[C@@H](Nc3nc(N(C)C)c4ccccc4n3)CC2)c([N+](=O)[O-])c1 [compound 700] | 3 (Class 3: The value of percent of control at 10^−7 M was more than 60% or the value of IC50 was more than 200 nM.)
6 | CN(C)c1nc(N[C@H]2CC[C@@H](CNC(=S)Nc3ccc(Cl)c(Cl)c3)CC2)nc2ccccc12 [compound 594] | 3 (Class 3: The value of percent of control at 10^−7 M was more than 60% or the value of IC50 was more than 200 nM.)
7 | Cc1ccc(CNC(=O)NC[C@H]2CC[C@@H](Nc3nc(N(C)C)c4ccccc4n3)CC2)cc1 [compound 559] | 3 (Class 3: The value of percent of control at 10^−7 M was more than 60% or the value of IC50 was more than 200 nM.)
8 | Cc1ccc(CNC(=S)N[C@H]2CC[C@@H](Nc3nc(N(C)C)c4ccccc4n3)CC2)cc1 [compound 280] | 3 (Class 3: The value of percent of control at 10^−7 M was more than 60% or the value of IC50 was more than 200 nM.)
9 | Cc1ccc(F)c(NC(=O)NC[C@H]2CC[C@@H](Nc3nc(N(C)C)c4ccccc4n3)CC2)c1 [compound 497] | 3 (Class 3: The value of percent of control at 10^−7 M was more than 60% or the value of IC50 was more than 200 nM.)
10 | CN(C)c1nc(N[C@H]2CC[C@@H](CNC(=O)Nc3c(Br)cc(F)cc3Br)CC2)nc2ccccc12 [compound 482, N-(2,6-dibromo-4-fluorophenyl)-N′-[(cis-4-{[4-(dimethylamino)quinazolin-2-yl]amino}cyclohexyl)methyl]urea] | 1 (Class 1: The value of percent of control at 10^−7 M was less than 40% or the value of IC50 was less than 50 nM.)
11 | CN(C)c1nc(N[C@H]2CC[C@@H](NC(=S)Nc3cccnc3)CC2)nc2ccccc12 [compound 390] | 3 (Class 3: The value of percent of control at 10^−7 M was more than 60% or the value of IC50 was more than 200 nM.)
12 | CSc1ccccc1NC(=S)N[C@H]1CC[C@@H](Nc2nc(N(C)C)c3ccccc3n2)CC1 [compound 206] | 2 (Class 2: The value of percent of control at 10^−7 M was from 40% to 60% or the value of IC50 was from 50 nM to 200 nM.)
13 | COc1ccccc1NC(=O)NC[C@H]1CC[C@@H](Nc2nc(N(C)C)c3ccccc3n2)CC1 [compound 446, N-[(cis-4-{[4-(dimethylamino)quinazolin-2-yl]amino}cyclohexyl)methyl]-N′-(2-methoxyphenyl)urea] | 2 (Class 2: The value of percent of control at 10^−7 M was from 40% to 60% or the value of IC50 was from 50 nM to 200 nM.)
14 | Cc1noc(C)c1NC(=O)NC[C@H]1CC[C@@H](Nc2nc(N(C)C)c3ccccc3n2)CC1 [compound 774, N-[(cis-4-{[4-(dimethylamino)quinazolin-2-yl]amino}cyclohexyl)methyl]-N′-(3,5-dimethylisoxazol-4-yl)urea] | 2 (Class 2: The value of percent of control at 10^−7 M was from 40% to 60% or the value of IC50 was from 50 nM to 200 nM.)
15 | CCOC(=O)[C@H](Cc1ccccc1)NC(=O)N[C@H]1CC[C@@H](Nc2nc(N(C)C)c3ccccc3n2)CC1 (relative stereo) [compound 336, ethyl N-{[(cis-4-{[4-(dimethylamino)quinazolin-2-yl]amino}cyclohexyl)amino]carbonyl}phenylalaninate] | 1 (Class 1: The value of percent of control at 10^−7 M was less than 40% or the value of IC50 was less than 50 nM.)

Same assay, conditions: class by percent of control at 10^-7 M or by IC50; read-out: class

Row | IC50 [µM] | Compound
16 | > 0.2 | CC(C)NC(=O)N[C@H]1CC[C@@H](Nc2nc(N(C)C)c3ccccc3n2)CC1 [compound 42]
17 | > 0.2 | CN(C)c1ccc(NC(=S)NC[C@H]2CC[C@@H](Nc3nc(N(C)C)c4ccccc4n3)CC2)cc1 [compound 806]
18 | > 0.2 | COc1ccc(Cl)cc1NC(=O)N[C@H]1CC[C@@H](Nc2nc(N(C)C)c3ccccc3n2)CC1 [compound 835]
19 | > 0.2 | CN(C)c1nc(N[C@H]2CC[C@@H](CNC(=S)Nc3ccc(N4CCOCC4)nc3)CC2)nc2ccccc12 [compound 820]
20 | < 0.05 | CN(C)c1nc(N[C@H]2CC[C@@H](NC(=O)Nc3c(Cl)cc(Cl)cc3Cl)CC2)nc2ccccc12 [compound 63, N-(cis-4-{[4-(dimethylamino)quinazolin-2-yl]amino}cyclohexyl)-N′-(2,4,6-trichlorophenyl)urea]

Row | Compound | IC50 [µM]
21 | N-[3-(dimethylamino)propyl]-N′-[(cis-4-{[4-(dimethylamino)-quinazolin-2-yl]amino}cyclohexyl)methyl]thiourea [compound 807] | > 0.2

Same assay, conditions: class by percent of control at 10^−7 M or by IC50; read-out: class

Row | IC50 [µM] | Compound
22 | 0.05 to 0.2 | CN(C)c1nc(N[C@H]2CC[C@@H](NC(=O)c3cccc(NC(=O)C(C)(C)C)c3)CC2)nc2ccccc12 [Example 1202, N-(cis-4-{(4-(dimethylamino)quinazolin-2-yl]amino}cyclohexyl)-3-[(2,2-dimethylpropanoyl)amino]benzamide]
23 | < 0.05 | Cc1cccc(OCC(=O)N[C@H]2CC[C@@H](Nc3nc(N(C)C)c4ccccc4n3)CC2)c1 [Example 1079, N-(cis-4-{[4-(dimethylamino)quinazolin-2-yl]amino}cyclohexyl)-2-(3-methylphenoxy)acetamide]
24 | 0.05 to 0.2 | COc1ccccc1OCC(=O)N[C@H]1CC[C@@H](Nc2nc(N(C)C)c3ccccc3n2)CC1 [Example 1082, N-(cis-4-{[4-(dimethylamino)quinazolin-2-yl]amino}cyclohexyl)-2-(2-methoxyphenoxy)acetamide]
25 | > 0.2 | CN(C)c1nc(NC[C@@H]2CC[C@H](NC(=O)c3ccc(F)cc3F)C2)nc2ccccc12 [Example 1133, N-[(1S,3R)-3-({[4-(dimethylamino)quinazolin-2-yl]amino}methyl)cyclopentyl]-2,4-difluorobenzamide]
26 | 0.05 to 0.2 | CN(C)c1nc(N[C@H]2CC[C@@H](NC(=O)C(O)c3ccc(F)c(F)c3)CC2)nc2ccccc12 (relative stereo) [Example 1108, 2-(3,4-difluorophenyl)-N-(cis-4-{[4-(dimethylamino)quinazolin-2-yl]amino}cyclohexyl)-2-hydroxyacetamide]
27 | < 0.05 | CN(C)c1nc(N[C@H]2CC[C@@H](NC(=O)c3cccnc3Oc3ccccc3Cl)CC2)nc2ccccc12 [Example 1031, 2-(2-chlorophenoxy)-N-(cis-4-{[4-(dimethylamino)quinazolin-2-yl]amino}cyclohexyl)nicotinamide]
